# According to a melting point compilation (Tetko et al.):
row,melting point,SMILES
1,154 to 156 °C,Nc1ccc(Oc2ccnc3cc(Cl)ccc23)c(F)c1
2,158 to 160 °C,Cc1ccc(N)cc1S(=O)(=O)Nc1cccc(Cl)c1
3,87 to 89 °C,CC(Cl)C(=O)Nc1ccc([N+](=O)[O-])cc1Cl (configuration not stated)
4,206 to 208 °C,Cc1c(C(=O)O)oc2c1ccc1ccccc12
5,55 to 57 °C,O=C(c1ccc(F)cc1)c1cnccn1
6,189 to 191 °C,O=C(CSc1ccccc1C(=O)O)c1ccc(-c2ccccc2)cc1
7,89 to 91 °C,N#Cc1ccc(C(O)C(=O)O)cc1 (configuration not stated)
8,119 to 121 °C,Nc1nc2ccc(Br)cc2s1
9,182 to 184 °C,NC(=O)c1ccc(OCCCl)cc1
10,279 to 281 °C,N#Cc1c(S)nc2c(c1-c1ccco1)CCC2
11,196 to 198 °C,O=C(O)c1cccnc1C1CC1
12,41 to 43 °C,CC1(C#N)CCN(C(=O)C(F)(F)F)CC1
13,148 to 150 °C,O=C(O)CCN1C(=O)Cc2ccccc2C1=O
14,235 to 237 °C,Nc1nncc(-c2ccccc2)n1
15,165 to 167 °C,COc1c(C(=O)O)sc(C)c1Br
16,33 to 35 °C,Fc1ccc2oc(Cl)nc2c1
17,133 to 135 °C,CCOC(=O)c1sc2cccc(F)c2c1CBr
18,44 to 46 °C,CS(=O)(=O)NCCBr
19,181 to 183 °C,COc1cccc(-c2nnn[nH]2)c1

row,melting point,SMILES
1,171 to 173 °C,CC(CC(=O)O)c1ccncc1 (configuration not stated)
2,225 to 227 °C,CC(=O)NC(C)c1ccc(-c2csc(N)n2)cc1 (configuration not stated)
3,105 to 109 °C,O=C(O)Cc1csc(-c2ccccc2Cl)n1
4,31 to 33 °C,Cc1ccc(Br)cc1N
5,110 to 112 °C,CN(CC(=O)O)C(=O)c1ccc(Br)o1
6,44 to 46 °C,O=C(Nc1ccccc1Cl)OCC(F)(F)F
7,185 to 187 °C,CC1=NS(=O)(=O)NC(C)=C1CC(=O)O
8,127 to 129 °C,O=C(O)C1CCN(S(=O)(=O)c2ccccc2C(F)(F)F)CC1
9,55 to 57 °C,N#Cc1cc[nH]c1
10,164 to 166 °C,CNS(=O)(=O)c1ccc(C(=O)O)o1
11,174 to 176 °C,Cc1oc(-c2ccccc2F)nc1C(=O)O
12,91 to 93 °C,C=CS(=O)(=O)c1ccc(C(C)(C)C)cc1
13,77 to 79 °C,CC(C(=O)O)c1ccc2c(c1)OCCO2 (configuration not stated)
14,219 to 221 °C,Cc1nn(C)c2c1NC(=O)CO2
15,109 to 111 °C,O=C(O)c1cc(S(=O)(=O)Cl)c(Br)s1
16,146 to 148 °C,O=C(O)C1CCN(C(=O)C2(c3ccccc3)CCC2)CC1
17,194 to 196 °C,Cc1nc(Cc2nnc(S)o2)cs1
18,98 to 100 °C,O=C(O)CSCc1cscn1
19,166 to 168 °C,CC(C)Oc1ccc(C(N)=O)cc1

row,melting point,SMILES
1,166 to 168 °C,Cc1ccc(OCc2cccc(C(=O)O)c2)cn1
2,140 to 142 °C,CCn1c(S)nnc1-c1ccncc1
3,219 to 221 °C,O=C1CCCc2cc(O)ccc2N1
4,206 to 208 °C,COc1cccc(C(N)CC(=O)O)c1OC (configuration not stated)
5,164 to 166 °C,CC(=O)Nc1ccc(Oc2nc3ccccc3o2)cc1
6,374 to 376 °C,O=C(O)c1cc(F)cc2[nH]c(S)nc12
7,231 to 233 °C,O=C(O)c1cccc(N2C(=O)C=CC2=O)c1
8,123 to 125 °C,CCn1c(Cl)nnc1-c1ccccc1Cl
9,147 to 149 °C,O=C(O)c1cccc(OCc2cccs2)c1
10,140 to 142 °C,CCOC(=O)/C(C#N)=C/Nc1cc(OC)cc(OC)c1
11,157 to 159 °C,O=C(O)Cc1ccc([N+](=O)[O-])cc1Cl
12,217 to 219 °C,Cc1ccc(S(=O)(=O)NC2CCCCC2)cc1C(=O)O
13,111 to 113 °C,O=C(O)C1CCc2c(Cl)cccc21 (configuration not stated)
14,188 to 192 °C,O=C(O)c1cccc(S(=O)(=O)NC2CC2)c1
15,227 to 229 °C,CCCC(NCCC(=O)Nc1cc(C)on1)C(=O)O (configuration not stated)
16,168 to 170 °C,Cc1ncsc1C(=O)NN
17,94 to 96 °C,Cc1nc(N)sc1Cc1ccc(F)cc1
18,120 to 122 °C,Cc1sc(N)c(C(=O)O)c1C

row,SMILES,melting point
1,CCc1cc(O)nc(CCl)n1,125 to 127 °C
